Measured values: patent US10689705B2, “FGFR3 fusion gene and pharmaceutical drug targeting same” (Chugai Seiyaku Kabushiki Kaisha, priority 2012, dated 2020)

test system: RT112/84; assay: Cell proliferation inhibition, WST-8, four days (Example 3); format: cell-based; details: Homo sapiens, RT112/84, 96 h, fusion polypeptide expressing
Method: (§1) IC50 was calculated using the least-square method.

| SMILES | IC50 [µM] |
| --- | --- |
| CCN(CC)CCCCNc1ncc2cc(-c3cc(OC)cc(OC)c3)c(NC(=O)NC(C)(C)C)nc2n1 [COMPOUND B, PD173074] | 0.014 |

test system: SW780; assay: as above; format: cell-based; details: Homo sapiens, SW780, 96 h, fusion polypeptide expressing
Method: as §1

| SMILES | IC50 [µM] |
| --- | --- |
| CCN(CC)CCCCNc1ncc2cc(-c3cc(OC)cc(OC)c3)c(NC(=O)NC(C)(C)C)nc2n1 [COMPOUND B, PD173074] | 0.069 |

test system: BFTC-905; assay: as above; format: cell-based; details: Homo sapiens, BFTC-905, 96 h, wild-type FGFR, no fusion
Method: as §1

| SMILES | IC50 [µM] |
| --- | --- |
| CCN(CC)CCCCNc1ncc2cc(-c3cc(OC)cc(OC)c3)c(NC(=O)NC(C)(C)C)nc2n1 [COMPOUND B, PD173074] | 14 |

test system: UM-UC-14; assay: as above; format: cell-based; details: Homo sapiens, UMUC14, 96 h, mutated type FGFR, no fusion
Method: as §1

| SMILES | IC50 [µM] |
| --- | --- |
| CCN(CC)CCCCNc1ncc2cc(-c3cc(OC)cc(OC)c3)c(NC(=O)NC(C)(C)C)nc2n1 [COMPOUND B, PD173074] | 0.01 |

test system: RT4; assay: as above; format: cell-based; details: Homo sapiens, RT-4, 96 h, fusion polypeptide expressing
Method: as §1

| SMILES | IC50 [µM] |
| --- | --- |
| CCN(CC)CCCCNc1ncc2cc(-c3cc(OC)cc(OC)c3)c(NC(=O)NC(C)(C)C)nc2n1 [COMPOUND B, PD173074] | 0.18 |

test system: HT-1376; assay: as above; format: cell-based; details: Homo sapiens, HT-1376, 96 h, does not express FGFR3
Method: as §1

| SMILES | IC50 [µM] |
| --- | --- |
| CCN(CC)CCCCNc1ncc2cc(-c3cc(OC)cc(OC)c3)c(NC(=O)NC(C)(C)C)nc2n1 [COMPOUND B, PD173074] | 11 |

test system: colon cancer-derived cell line HCT116; assay: cells; details: Homo sapiens, HCT-116, 96 h, read-out: HCT116 (CRC) IC50;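 note: proliferation measured with WST-8, IC50 derived by least-squares fitting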

| SMILES | IC50 [µM] |
| --- | --- |
| Cc1nc2ccc(-n3ncc(C(=O)c4cc5ccc(C6CCN(C)CC6)cc5[nH]4)c3N)cc2[nH]1 [Compound 2] | 2.7 |
| Cc1nc2cc(-n3ncc(C(=O)c4cc5ccc(CN6CCOC[C@@H]6C)cc5[nH]4)c3N)ccc2[nH]1 [Compound 3] | 2.9 |
| Cc1nc2ccc(-n3ncc(C(=O)c4cc5cc(CN6CCCC(F)C6)ccc5[nH]4)c3N)cc2[nH]1 (stereo not drawn) [Compound 4] | 9.5 |
| Cc1nc2ccc(-n3ncc(C(=O)c4cc5cc(CN6C(C)CCC6C)ccc5[nH]4)c3N)cc2[nH]1 (stereo not drawn) [Compound 5] | 11 |
| Cc1nc2cc(-n3ncc(C(=O)c4cc5ccc(OCC6(C)COC6)cc5[nH]4)c3N)ccc2[nH]1 [Compound 6] | 12 |
| COCCN(CCOC)Cc1ccc2cc(C(=O)c3cnn(-c4ccc5[nH]c(C)nc5c4)c3N)[nH]c2c1 [Compound 8] | 11 |
| Cc1nc2cc(-n3ncc(C(=O)c4cc5ccc(OCCN6CCN(C)CC6)cc5[nH]4)c3N)ccc2[nH]1 [Compound 9] | 6.3 |
| Cc1nc2ccc(-n3ncc(C(=O)c4cc5ccc(C#N)cc5[nH]4)c3N)cc2[nH]1 [Compound 10] | > 50 |
| Cc1nc2ccc(-n3ncc(C(=O)c4cc5cc(C6CCN(C(C)C)CC6)ccc5[nH]4)c3N)cc2[nH]1 [Compound 11] | 5.7 |
| Cc1nc2cc(-n3ncc(C(=O)c4cc5ccc(C6CC6)cc5[nH]4)c3N)ccc2[nH]1 [Compound 12] | 7.2 |
| Cc1nc2ccc(-n3ncc(C(=O)c4cc5ccc(-c6cccs6)cc5[nH]4)c3N)cc2[nH]1 [Compound 13] | 0.39 |
| Cc1nc2cc(-n3ncc(C(=O)c4cc5cc6c(cc5[nH]4)OCCO6)c3N)ccc2[nH]1 [Compound 14] | 3.1 |
| Cc1nc2cc(-n3ncc(C(=O)c4cc5ccccc5[nH]4)c3N)c(F)cc2[nH]1 [Compound 15] | 19 |
| CCCCc1ccc2cc(C(=O)c3cnn(-c4ccc5nc(C)[nH]c5c4)c3N)[nH]c2c1 [Compound 16] | 17 |
| Cc1nc2ccc(-n3ncc(C(=O)c4cc5cc(C6CCN(C7CCCC7)CC6)ccc5[nH]4)c3N)cc2[nH]1 [Compound 17] | 3.8 |
| COc1ccc2cc(C(=O)c3cnn(-c4ccc5[nH]c(C)nc5c4)c3N)[nH]c2c1 [Compound 18] | 11 |
| C#CCN(C)Cc1ccc2cc(C(=O)c3cnn(-c4ccc5[nH]c(C)nc5c4)c3N)[nH]c2c1 [Compound 19] | 2.5 |
| Cc1nc2cc(-n3ncc(C(=O)c4cc5ccc(-c6ccc(N7CCOCC7)nc6)cc5[nH]4)c3N)ccc2[nH]1 [Compound 20] | > 50 |
| Cc1nc2cc(-n3ncc(C(=O)c4cc5ccc(OC6COC6)cc5[nH]4)c3N)ccc2[nH]1 [Compound 21] | 21 |
| Cc1nc2cc(-n3ncc(C(=O)c4cc5ccc(I)cc5[nH]4)c3N)ccc2[nH]1 [Compound 22] | 1.2 |
| CN1CCC(c2ccc3[nH]c(C(=O)c4cnn(-c5ccc6nc(C(F)F)[nH]c6c5)c4N)cc3c2)CC1 [Compound 23] | 10 |
| Cc1nc2cc(-n3ncc(C(=O)c4cc5ccc(-c6cnn(C)c6)cc5[nH]4)c3N)ccc2[nH]1 [Compound 24] | > 50 |

| SMILES | IC50 [µM] |
| --- | --- |
| COCCOc1ccc2[nH]c(C(=O)c3cnn(-c4ccc5[nH]c(C)nc5c4)c3N)cc2c1 [Compound 25] | > 100 |
| Cc1nc2cc(-n3ncc(C(=O)c4cc5ccc(-c6ccc(F)cn6)cc5[nH]4)c3N)ccc2[nH]1 [Compound 26] | 11 |
| Cc1nc2ccc(-n3ncc(C(=O)c4cc5ccc(CO)cc5[nH]4)c3N)cc2[nH]1 [Compound 27] | 25 |
| Cc1nc2ccc(-n3ncc(C(=O)c4cc5cc(-c6cccnc6)ccc5[nH]4)c3N)cc2[nH]1 [Compound 28] | 21 |
| Cc1cc(C)c2cc(C(=O)c3cnn(-c4ccc5[nH]c(C)nc5c4)c3N)[nH]c2c1 [Compound 29] | 8.5 |
| CSc1ccc2cc(C(=O)c3cnn(-c4ccc5[nH]c(C)nc5c4)c3N)[nH]c2c1 [Compound 30] | 13 |
| Cc1nc2cc(-n3ncc(C(=O)c4cc5cc(C6CCN(C(C)C)CC6)c(C(F)(F)F)cc5[nH]4)c3N)ccc2[nH]1 [Compound 31] | 2 |
| Cc1nc2ccc(-n3ncc(C(=O)c4cc5cc(C6=CCNCC6)ccc5[nH]4)c3N)cc2[nH]1 [Compound 32] | 8.7 |
| Cc1nc2cc(-n3ncc(C(=O)c4cc5cc(C(C)(C)C)ccc5[nH]4)c3N)ccc2[nH]1 [Compound 33] | 4.4 |
| Cc1nc2cc(-n3ncc(C(=O)c4cc5ccc(-c6cncc(S(C)(=O)=O)c6)cc5[nH]4)c3N)ccc2[nH]1 [Compound 35] | 7.8 |
| Cc1nc2ccc(-n3ncc(C(=O)c4[nH]c5ccccc5c4F)c3N)cc2[nH]1 [Compound 36] | 4.8 |
| COc1cc(OC)c2cc(C(=O)c3cnn(-c4ccc5[nH]c(C)nc5c4)c3N)[nH]c2c1 [Compound 37] | 8.9 |
| CCCCOc1ccc2[nH]c(C(=O)c3cnn(-c4ccc5[nH]c(C)nc5c4)c3N)cc2c1 [Compound 38] | 6.1 |
| Cc1nc2cc(-n3ncc(C(=O)c4cc5cc(OCC6CC6)ccc5[nH]4)c3N)ccc2[nH]1 [Compound 39] | 11 |
| Cc1nc2cc(-n3ncc(C(=O)c4cc5ncccc5[nH]4)c3N)ccc2[nH]1 [Compound 40] | 19 |
| Cc1ccc(-c2ccc3cc(C(=O)c4cnn(-c5ccc6[nH]c(C)nc6c5)c4N)[nH]c3c2)cn1 [Compound 41] | > 20 |
| Cc1nc2cc(-n3ncc(C(=O)c4cc5c(C)cccc5[nH]4)c3N)ccc2[nH]1 [Compound 42] | 15 |
| COc1ncccc1-c1ccc2cc(C(=O)c3cnn(-c4ccc5[nH]c(C)nc5c4)c3N)[nH]c2c1 [Compound 43] | > 50 |
| Cc1nc2cc(-n3ncc(C(=O)c4cc5ccc(Br)cc5[nH]4)c3N)ccc2[nH]1 [Compound 44] | 10 |
| Cc1nc2cc(-n3ncc(C(=O)c4cc5ccc(OCCN6CCOCC6)cc5[nH]4)c3N)ccc2[nH]1 [Compound 45] | 9.4 |
| Cc1nc2cc(-n3ncc(C(=O)c4cc5cc(CN6CCN(S(C)(=O)=O)CC6)ccc5[nH]4)c3N)ccc2[nH]1 [Compound 47] | 14 |
| Cc1nc2cc(-n3ncc(C(=O)c4cc5ccc(O)cc5[nH]4)c3N)ccc2[nH]1 [Compound 48] | 37 |

| SMILES | IC50 [µM] |
| --- | --- |
| Cc1nc2ccc(-n3ncc(C(=O)c4cc5ccc(Cl)cc5[nH]4)c3N)cc2[nH]1 [Compound 50] | 34 |
| COc1ccccc1-c1ccc2cc(C(=O)c3cnn(-c4ccc5[nH]c(C)nc5c4)c3N)[nH]c2c1 [Compound 51] | 5.1 |
| Cc1nc2cc(-n3ncc(C(=O)c4cc5ccc(-c6ccc(C(F)(F)F)cn6)cc5[nH]4)c3N)ccc2[nH]1 [Compound 52] | 10 |
| Cc1nc2cc(-n3ncc(C(=O)c4cc5cc6c(cc5[nH]4)OC(F)(F)O6)c3N)ccc2[nH]1 [Compound 53] | > 20 |
| Cc1nc2cc(-n3ncc(C(=O)c4cc5cc(C(=O)N6CCC(N7CCCCC7)CC6)ccc5[nH]4)c3N)ccc2[nH]1 [Compound 54] | > 20 |
| Cc1nc2ccc(-n3ncc(C(=O)c4cc5cc(C6CCNCC6)c(F)cc5[nH]4)c3N)cc2[nH]1 [Compound 55] | 16 |
| Cc1nc2cc(-n3ncc(C(=O)c4cc5c(OC(C)C)cccc5[nH]4)c3N)ccc2[nH]1 [Compound 56] | 19 |
| Cc1nc2cc(-n3ncc(C(=O)c4cc5cc(C(=O)N6CCN(CC(F)(F)F)CC6)ccc5[nH]4)c3N)ccc2[nH]1 [Compound 57] | > 20 |
| COc1cc2[nH]c(C(=O)c3cnn(-c4ccc5[nH]c(C)nc5c4)c3N)cc2cc1Cl [Compound 58] | 12 |
| Cc1nc2cc(-n3ncc(C(=O)c4cc5ccc(OCc6ccccc6)cc5[nH]4)c3N)ccc2[nH]1 [Compound 59] | 3.3 |
| Cc1nc2cc(-n3ncc(C(=O)c4cc5cc(C(=O)N6CCCC(F)(F)C6)ccc5[nH]4)c3N)ccc2[nH]1 [Compound 60] | 17 |
| Cc1nc2cc(-n3ncc(C(=O)c4cc5cc(SC(F)(F)F)ccc5[nH]4)c3N)ccc2[nH]1 [Compound 61] | 9.1 |
| Cc1nc2cc(-n3ncc(C(=O)c4cc5cc(F)c(C(F)(F)F)cc5[nH]4)c3N)ccc2[nH]1 [Compound 62] | 1.7 |
| C#Cc1cccc2[nH]c(C(=O)c3cnn(-c4ccc5[nH]c(C)nc5c4)c3N)cc12 [Compound 63] | 13 |
| Cc1nc2cc(-n3ncc(C(=O)c4cc5ccc(-c6ccc(F)cc6)cc5[nH]4)c3N)ccc2[nH]1 [Compound 64] | 1.2 |
| Cc1nc2cc(-n3ncc(C(=O)c4cc5cc(-n6ccnc6)ccc5[nH]4)c3N)ccc2[nH]1 [Compound 65] | 23 |
| Cc1nc2cc(-n3ncc(C(=O)c4cc5ccc(NS(C)(=O)=O)cc5[nH]4)c3N)ccc2[nH]1 [Compound 66] | > 50 |
| Cc1nc2cc(-n3ncc(C(=O)c4cc5ccc(OC6CCOCC6)cc5[nH]4)c3N)ccc2[nH]1 [Compound 67] | 7.3 |
| Cc1nc2cc(-n3ncc(C(=O)c4cc5cc(C(F)(F)F)ccc5[nH]4)c3N)ccc2[nH]1 [Compound 68] | > 2 |
| Cc1nc2cc(-n3ncc(C(=O)c4cc5cc(Oc6ccccc6)ccc5[nH]4)c3N)ccc2[nH]1 [Compound 69] | 4.3 |
| Cc1nc2cc(-n3ncc(C(=O)c4cc5cc(F)c(Br)cc5[nH]4)c3N)ccc2[nH]1 [Compound 70] | 9 |
| Cc1nc2cc(-n3ncc(C(=O)c4cc5cc(Cc6ccccc6)ccc5[nH]4)c3N)ccc2[nH]1 [Compound 71] | 3.8 |
